Data published in patent US20120010178A1, “METHODS AND COMPOUNDS FOR TREATMENT OF NEURODEGENERATIVE DISORDERS” (PRESIDENT AND FELLOWS OF HARVARD COLLEGE, priority 2008, published 2012).
“Also recorded” adds a separate entry of the source.

What was measured:
[1] = test system: SMN; test: SMN immunofluorescence quantification (cytoplasm, nucleus, GEMs) in fibroblasts from SMA patients; type: cell-based, human; details: SMA patient fibroblasts
How it was run: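 SMN immunostained and imaged by automated confocal microscopy; per-cell cytoplasmic and nuclear SMN intensity and GEM number and intensity quantified. PFA fixation used for screening.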

[2] = test system: SMN1 and SMN2 transcripts; test: qRT-PCR of SMN1 and SMN2 transcripts after PDGF-BB; type: cell-based, human; details: 50 ng/ml, over three days
Protocol: Although there is much more known about growth factor specificity and downstream pathways that they activate, whether PDGF effect on SMN was mediated through the binding to the PDGFR was tested next. The SMN-increasing effects of PDGF were blocked by DMPQ and […], two small molecules inhibitors of the PDGF receptor (FIG. 21a). In addition PDGF neutralizing antibody titration were performed in the cells incubated with 20 ng/ml platelet-derived PDGF. Depending on the antibody concentration, gradient of SMN level decrease reaching 40% was observed (FIG. 21b). Moreover, as might be predicted, since there are appreciable levels of PDGF in the media serum in which the fibroblasts are normally maintained, simply adding PDGFR inhibitors DMPQ and AG-1296 to the media decreases the “basal” level of SMN in these cells down to 15-20%, (FIG. 22). […]
[…] was purified using Tri-Reagent (Sigma-Aldrich) protocol and quantified on the Nanodrop (Thermo Fisher Scientific). […] Synthesised cDNA was diluted 5 times and 1 μl of cDNA sample was PCR amplified using RT^2SYBR Green/ROX PCR Master Mix and primer assays for SMN1, SMN2, GAPDH (SABiosciences) genes on 7900HT Fast Real-Time PCR System (ABI). qPCR results were analyzed with RQ Manager Software (ABI) by […] quantification method.

With PDGF-BB: human recombinant PDGF-BB the “levels of cytoplasmic and nuclear SMN (in words)” value ([1]; substance alone) was “strongest activator of SMN; also recorded: most potent growth factor that elevated SMN protein levels”, the “Avg. SMN fold increase” value ([1]; human PDGF isoforms) was 2-2.3 fold and the “level of SMN1 and SMN2 transcripts” value [2] was “little or no increase in SMN transcripts”.
